From patent US9193720B2, “Pyridin-3-yl acetic acid derivatives as inhibitors of human immunodeficiency virus replication” (priority 2014, dated 2015)

What follows are molecules tested on NL-RLuc virus (assay: Inhibition of HIV Replication (NL-RLuc luciferase reporter virus in MT-2 cells)). Conditions: Human immunodeficiency virus 1, MT2, 120 h.
Assay type: cell-based
Source text: Inhibition of HIV Replication:
A recombinant NL-RLuc proviral clone was constructed in which a section of the nef gene from NL4-3 was replaced with the Renilla Luciferase gene. This virus is fully infectious and can undergo multiple cycles of replication in cell culture. In addition, the luciferous reporter provides a simple and easy method for quantitating the extent of virus growth and consequently, the antiviral activity of test compounds. The plasmid pNLRLuc contains the proviral NL-Rluc DNA cloned into pUC18 at the PvuII site. The NL-RLuc virus was prepared by transfection of 293T cells with the plasmid pNLRLuc. Transfections were performed using the LipofectAMINE PLUS kit from Invitrogen (Carlsbad, Calif.) according to the manufacturer and the virus generated was titered in MT-2 cells. For susceptibility analyses, the titrated virus was used to infect MT-2 cells in the presence of compound, and after 5 days of incubation, cells were processed and quantitated for virus growth by the amount of expressed luciferase. Assay media was RPMI 1640 supplemented with 10% heat inactivated fetal bovine serum (FBS), 100 units/ml penicillin G/100 units/ml streptomycin, 10 mM HEPES buffer pH 7.55 and 2 mM L-glutamine. The results from at least 2 experiments were used to calculate the EC50 values. Luciferase was quantitated using the Dual Luciferase kit from Promega (Madison, Wis.). Susceptibility of viruses to compounds was determined by incubation in the presence of serial dilutions of the compound. The 50% effective concentration (EC50) was calculated by using the exponential form of the median effect equation where (Fa)=1/[1+(ED50/drug conc.)^m] (Johnson V A, Byington R T. Infectivity Assay. In Techniques in HIV Research. ed. Aldovini A, Walker B D. 71-76. New York: Stockton Press. 1990).

`Cc1nc(C)c([C@H](OC(C)(C)C)C(=O)O)c(N2CCC(C)(C)CC2)c1-c1ccc(OC(C)Cc2ccc(F)cc2)cc1` (single isomer, unassigned) [Example 21] and `Cc1nc(C)c([C@H](OC(C)(C)C)C(=O)O)c(N2CCC(C)(C)CC2)c1-c1ccc(OCc2ccc(F)cc2)cc1` [Example 2, (S)-2-(tert-butoxy)-2-(4-(4,4-dimethylpiperidin-1-yl)-5-(4-((4-fluorobenzyl)oxy)phenyl)-2,6-dimethylpyridin-3-yl)acetic acid] are within 1.5-fold of each other in EC50: 14 nM for the first, 12 nM for the second.

Going from `Cc1nc(C)c([C@H](OC(C)(C)C)C(=O)O)c(N2CCC(C)(C)CC2)c1-c1ccc(Oc2ccccc2)cc1` [Example 1, (S)-2-(tert-butoxy)-2-(4-(4,4-dimethylpiperidin-1-yl)-2,6-dimethyl-5-(4-phenoxyphenyl)pyridin-3-yl)acetic acid] to `Cc1nc(C)c([C@H](OC(C)(C)C)C(=O)O)c(N2CCC(C)(C)CC2)c1-c1ccc(OCc2ccccc2)cc1` [Example 5, (S)-2-(5-(4-(benzyloxy)phenyl)-4-(4,4-dimethylpiperidin-1-yl)-2,6-dimethylpyridin-3-yl)-2-(tert-butoxy)acetic acid], the EC50 falls from 37 nM to 11 nM (3.4-fold).

Going from `Cc1nc(C)c([C@H](OC(C)(C)C)C(=O)O)c(N2CCC(C)(C)CC2)c1-c1ccc(OCc2ccccc2)nc1` [Example 3, (S)-2-(6′-(benzyloxy)-4-(4,4-dimethylpiperidin-1-yl)-2,6-dimethyl-[3,3′-bipyridin]-5-yl)-2-(tert-butoxy)acetic acid] to `Cc1nc(C)c([C@H](OC(C)(C)C)C(=O)O)c(N2CCC(C)(C)CC2)c1-c1ccc(OCc2ccccc2)c(F)c1` [Example 4, (S)-2-(5-(4-(benzyloxy)-3-fluorophenyl)-4-(4,4-dimethylpiperidin-1-yl)-2,6-dimethylpyridin-3-yl)-2-(tert-butoxy)acetic acid], the EC50 falls from 20 nM to 12 nM (1.7-fold). The second is the more potent here.

Going from `COc1ccccc1COc1ccc(-c2c(C)nc(C)c([C@H](OC(C)(C)C)C(=O)O)c2N2CCC(C)(C)CC2)cc1` [Example 6, (S)-2-(tert-butoxy)-2-(4-(4,4-dimethylpiperidin-1-yl)-5-(4-((2-methoxybenzyl)oxy)phenyl)-2,6-dimethylpyridin-3-yl)acetic acid] to `COc1ccc(COc2ccc(-c3c(C)nc(C)c([C@H](OC(C)(C)C)C(=O)O)c3N3CCC(C)(C)CC3)cc2)cc1` [Example 8, (S)-2-(tert-butoxy)-2-(4-(4,4-dimethylpiperidin-1-yl)-5-(4-((4-methoxybenzyl)oxy)phenyl)-2,6-dimethylpyridin-3-yl)acetic acid], the EC50 falls from 20 nM to 11 nM (1.8-fold).

`Cc1nc(C)c([C@H](OC(C)(C)C)C(=O)O)c(N2CCC(C)(C)CC2)c1-c1ccc(OCc2cccc(F)c2)cc1` [Example 7, (S)-2-(tert-butoxy)-2-(4-(4,4-dimethylpiperidin-1-yl)-5-(4-((3-fluorobenzyl)oxy)phenyl)-2,6-dimethylpyridin-3-yl)acetic acid] and `Cc1nc(C)c([C@H](OC(C)(C)C)C(=O)O)c(N2CCC(C)(C)CC2)c1-c1ccc(OCc2ccc(Cl)cc2)cc1` [Example 9, (S)-2-(tert-butoxy)-2-(5-(4-((4-chlorobenzyl)oxy)phenyl)-4-(4,4-dimethylpiperidin-1-yl)-2,6-dimethylpyridin-3-yl)acetic acid] are the same in EC50: 9 nM for the first, 9 nM for the second.

`CCOc1ccc(-c2c(C)nc(C)c([C@H](OC(C)(C)C)C(=O)O)c2N2CCC(C)(C)CC2)cc1` [Example 10, (S)-2-(tert-butoxy)-2-(4-(4,4-dimethylpiperidin-1-yl)-5-(4-ethoxyphenyl)-2,6-dimethylpyridin-3-yl)acetic acid] and `Cc1nc(C)c([C@H](OC(C)(C)C)C(=O)O)c(N2CCC(C)(C)CC2)c1-c1ccc(OCCC(C)(C)C)cc1` [Example 14, (S)-2-(tert-butoxy)-2-(5-(4-(3,3-dimethylbutoxy)phenyl)-4-(4,4-dimethylpiperidin-1-yl)-2,6-dimethylpyridin-3-yl)acetic acid] are within 1.5-fold of each other in EC50: 27 nM for the first, 28 nM for the second.

Going from `Cc1nc(C)c([C@H](OC(C)(C)C)C(=O)O)c(N2CCC(C)(C)CC2)c1-c1ccc(OCCc2ccc(F)cc2)cc1` [Example 11, (S)-2-(tert-butoxy)-2-(4-(4,4-dimethylpiperidin-1-yl)-5-(4-(4-fluorophenethoxy)phenyl)-2,6-dimethylpyridin-3-yl)acetic acid] to `Cc1nc(C)c([C@H](OC(C)(C)C)C(=O)O)c(N2CCC(C)(C)CC2)c1-c1ccc(OCCCc2ccc(F)cc2)cc1` [Example 13, (S)-2-(tert-butoxy)-2-(4-(4,4-dimethylpiperidin-1-yl)-5-(4-(3-(4-fluorophenyl)propoxy)phenyl)-2,6-dimethylpyridin-3-yl)acetic acid], the EC50 rises from 4 nM to 12 nM (3-fold).

`Cc1cc(CCOc2ccc(-c3c(C)nc(C)c([C@H](OC(C)(C)C)C(=O)O)c3N3CCC(C)(C)CC3)cc2)ccc1F` [Example 12, (S)-2-(tert-butoxy)-2-(4-(4,4-dimethylpiperidin-1-yl)-5-(4-(4-fluoro-3-methylphenethoxy)phenyl)-2,6-dimethylpyridin-3-yl)acetic acid] and `COc1ccc(CCOc2ccc(-c3c(C)nc(C)c([C@H](OC(C)(C)C)C(=O)O)c3N3CCC(C)(C)CC3)cc2)cc1` [Example 15, (S)-2-(tert-butoxy)-2-(4-(4,4-dimethylpiperidin-1-yl)-5-(4-(4-methoxyphenethoxy)phenyl)-2,6-dimethylpyridin-3-yl)acetic acid] are within 1.5-fold of each other in EC50: 5 nM for the first, 4 nM for the second.

Going from `Cc1nc(C)c([C@H](OC(C)(C)C)C(=O)O)c(N2CCC(C)(C)CC2)c1-c1ccc(O)cc1` [Example 16, (S)-2-(tert-Butoxy)-2-(4-(4,4-dimethylpiperidin-1-yl)-5-(4-hydroxyphenyl)-2,6-dimethylpyridin-3-yl)acetic acid] to `Cc1nc(C)c([C@H](OC(C)(C)C)C(=O)O)c(N2CCC(C)(C)CC2)c1-c1ccc(OCc2ccc(C(N)=O)cc2)cc1` [Example 19, (S)-2-(tert-Butoxy)-2-(5-(4-((4-carbamoylbenzyl)oxy)phenyl)-4-(4,4-dimethylpiperidin-1-yl)-2,6-dimethylpyridin-3-yl)acetic acid], the EC50 falls from 172 nM to 12 nM (14-fold).

First: Cc1nc(C)c([C@H](OC(C)(C)C)C(=O)O)c(N2CCC(C)(C)CC2)c1-c1ccc(OCCc2ccc(C(N)=O)cc2)cc1 [Example 17, (S)-2-(tert-Butoxy)-2-(5-(4-(4-carbamoylphenethoxy)phenyl)-4-(4,4-dimethylpiperidin-1-yl)-2,6-dimethylpyridin-3-yl)acetic acid]
Second: Cc1nc(C)c([C@H](OC(C)(C)C)C(=O)O)c(N2CCC(C)(C)CC2)c1-c1ccc(OCCc2ccc(C#N)cc2)cc1 [Example 18, (S)-2-(tert-Butoxy)-2-(5-(4-(4-cyanophenethoxy)phenyl)-4-(4,4-dimethylpiperidin-1-yl)-2,6-dimethylpyridin-3-yl)acetic acid]
The EC50 of the first is 2-fold higher: 4 nM for the first, 2 nM for the second. The second is the more potent here.

Work on `Cc1nc(C)c([C@H](OC(C)(C)C)C(=O)O)c(N2CCC(C)(C)CC2)c1-c1ccc(OCc2ccc(C#N)cc2)cc1` [Example 20, (S)-2-(tert-Butoxy)-2-(5-(4-((4-cyanobenzyl)oxy)phenyl)-4-(4,4-dimethylpiperidin-1-yl)-2,6-dimethylpyridin-3-yl)acetic acid] yielded an EC50 of 3 nM.
